Entries after “also recorded” stand apart in the source; their conditions may differ. Read-outs that look alike come from different tables or passages of the source.
Experiments:
[1] = system: MCF-7 cells; assay: Combinatorial effect of ATA with paclitaxel, MTT assay; format: cell-based; settings: Homo sapiens, read-out: cell growth inhibition rate
Protocol: The effect was determined by measuring the rates of cell growth inhibition using MTT assay. (* p<0.01, compared with cells treated with either paclitaxel alone or ATA alone).
The inventors of the present invention have shown for the first time that ATA can increase the cytotoxic effect of paclitaxel. In the tests (FIG. 16) with five concentrations of ATA at 10, 5, 2.5, 1.25, 0.625 μM and five concentrations of paclitaxel at 1000, 100, 10, 1, 0.1 nM were used.

[2] = system: ROS in MDA-MB-435 cells; assay: ROS generation and its prevention by PG; format: cell-based, human; settings: MDA-MB-435 cells
Protocol: (A) PG prevented ATA-induced cell death. Three concentrations of PG were tested for their protective effects on ATA-induced cell death. The cell viability was measured by SRB assay. (* p<0.01). (B) PG protected ROS generation caused by ATA treatment. […] All the experiments were performed at least three times. The results presented in this figure are the average of three experiments. Error bar represents standard deviation. Scale bar=20 μm.
It was further tested, whether PG could prevent ROS generation after ATA treatment.

[3] = system: SiHa; assay: IC50 and LC50 of ATA at 48 h; format: cell-based; settings: Homo sapiens, SiHa cervical cancer
[4] = Solubility relative to TIIA; format: physicochemical; settings: in both DMSO and PBS
Protocol: A mixture of TIIA (2.04 g), sodium acetate (2.5 g), acetic anhydride (18 ml), and anhydrous zinc powder (6 g) is stirred in a boiling water bath for 3 h, then immediately filtrated by using a vacuum filtration system to remove the insoluble residues. The filtrate is diluted with water (300 ml), and then heated to boil. The resulting solution is cooled at room temperature and filtered to give a solid product (1.80 g). The product can be further crystallized using 95% ethanol to produce the final product (1.51 g) acetyltanshinone IIA (ATA) with chemical designation of 1,6,6-trimethyl-8,9-dihydro-10,11-diacetoxyl-7H-naphtho[1,2-g][1]benzofuran (FIG. 2). ATA appeared in white color, which is totally different from its original red color.

[5] = system: SK-BR-3; assay: IC50 and LC50 of ATA at 48 h; format: cell-based; settings: Homo sapiens, SK-BR-3 breast cancer
[6] = system: MCF-7/HER2 cells; assay: Growth inhibition of HER2 over-expressing cells at 72 h; format: cell-based
Text: The efficacy of ATA on MCF-7 cells with over-expressed HER2 protein was investigated.

[7] = system: HeLa cells; assay: ATA-induced cell death by cell counting under a microscope; format: cell-based; settings: 10 μM or 20 μM ATA, 24 h or 48 h, YFP-Bcl-2 transfected HeLa
Protocol: HeLa cells were treated with 10 μM ATA for 12, 24, 36, and 48 h. The β-tubulin protein was probed as a loading control. […] HeLa cells were pre-treated with 2 μM pan-caspase inhibitor (z-VAD-fmk) for 2 h before ATA addition. Then 10 μM or 20 μM ATA were added. After 24 h and 48 h treatment, the number of died cells was counted under a microscope. (* p<0.01, compared with cells treated with ATA only). Control: cells without any treatment.
Overexpression of Bcl-2 inhibited ATA-induced cell death. HeLa cells transfected with either yellow fluorescent protein (YFP) (vector control) or YFP-Bcl-2 (Bcl-2) were treated with ATA at 10 or 20 μM. The percentage of cell death from YFP-positive cells was determined by cell counting under a fluorescence microscope. (* p<0.01, compared with vector control groups).
The inventors of the present invention have shown for the first time that ATA can activate the apoptotic pathway in cancer cells. […]
HeLa cells transfected with YFP-Bcl-2 or YFP only were treated with 10 μM or 20 μM ATA. After 24 h or 48 h treatment, the percentage of cell death in each sample was calculated by counting the numbers of fluorescence-positive cells either live (attached with a normal cell morphology) or dead (detached with a shrunk morphology) under a fluorescence microscope. […]

[8] = system: HER2 protein in BT474 cells; assay: HER2 protein level by Western blotting; format: cell-based, human; settings: 6 μM ATA or 1 μM fulvestrant
Protocol: (§1) Cells were treated with 6 μM ATA or 1 μM fulvestrant for indicated times and analyzed by Western blotting.

[9] = biological target: T1, ERα in BT474 cells (Homo sapiens, UniProt P03372); assay: ERα protein level by Western blotting; format: cell-based; settings: 6 μM ATA or 1 μM fulvestrant
T1 construct: endogenous in cells; host or cells: BT474 human breast cancer cells
T1 sequence (P03372 whole entry): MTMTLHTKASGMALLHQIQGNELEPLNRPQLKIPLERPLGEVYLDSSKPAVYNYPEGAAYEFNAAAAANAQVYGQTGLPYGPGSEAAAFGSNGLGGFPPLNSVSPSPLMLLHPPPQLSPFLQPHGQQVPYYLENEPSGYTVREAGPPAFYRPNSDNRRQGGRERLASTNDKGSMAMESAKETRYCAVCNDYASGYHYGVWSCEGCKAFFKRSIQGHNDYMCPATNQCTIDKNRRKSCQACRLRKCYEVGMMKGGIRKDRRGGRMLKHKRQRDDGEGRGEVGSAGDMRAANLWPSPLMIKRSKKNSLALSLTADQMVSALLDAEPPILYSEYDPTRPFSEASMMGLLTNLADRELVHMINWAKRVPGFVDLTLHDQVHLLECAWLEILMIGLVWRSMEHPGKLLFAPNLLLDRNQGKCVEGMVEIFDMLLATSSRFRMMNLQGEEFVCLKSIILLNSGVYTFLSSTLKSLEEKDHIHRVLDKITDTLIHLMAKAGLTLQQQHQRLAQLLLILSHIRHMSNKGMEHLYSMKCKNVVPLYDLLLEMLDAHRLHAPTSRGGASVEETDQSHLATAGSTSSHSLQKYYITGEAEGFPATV
Protocol: as §1

[10] = system: MCF-7; assay: Growth inhibition at 72 h by MTT assay
[11] = system: HeLa; assay: IC50 and LC50 of ATA at 48 h; format: cell-based; settings: Homo sapiens, HeLa cervical cancer
[12] = system: GREB1 mRNA in MCF-7 cells; assay: Real-time PCR of GREB1 mRNA level; settings: for GREB1 mRNA level, fold of the control: 100 pM estrogen plus 6 μM ATA, charcoal-stripped medium
Protocol: In order to do so, the mRNA level of a non-ER regulated gene GAPDH was measured and used as a reference. MCF-7 cells cultured in the charcoal-stripped medium were used as a control.

[13] = system: MCF-7; assay: IC50 and LC50 of ATA at 48 h; format: cell-based; settings: Homo sapiens, MCF7, MCF-7 breast cancer
[14] = system: xenografted tumors derived from human melanoma MDA-MB-435 cells; assay: Xenografted tumors in nude mice; format: in vivo; settings: 30 mg/kg, 3×/week intraperitoneal, four weeks
Protocol: ATA (▴ 30 mg/kg), etoposide (▪ ETS, 20 mg/kg) and vehicle control (◯) were injected into mice 3×/week via intraperitoneal injection. Average tumor size (A) and mice body weight (B) were measured from five mice.
The anti-tumour effect of ATA was examined in nude mice (FIG. 13 and FIG. 14) carrying solid tumours generated by injecting human melanoma MDA-MB-435 cells into the mice subcutaneously. The tumour size and mouse body weight were monitored over a period of four weeks.

## CC(=O)Oc1c(OC(C)=O)c2c(C)coc2c2ccc3c(c12)CCCC3(C)C [ATA, 1,6,6-trimethyl-8,9-dihydro-10,11-diacetoxyl-7H-naphtho[1,2-g][1]benzofuran]
[1]; MCF7, 2.5 μM ATA in combination with paclitaxel 1 nM
  inhibition at 2.5 µM: ~89%
[1]; MCF7, ATA alone at 2.5 μM
  inhibition at 2.5 µM: 71%
[2]
  time of maximum ROS level after ATA addition: 2 h
[3]
  CC50: 12300 ± 680 nM
  IC50: 1960 ± 490 nM
[4]
  higher solubility than TIIA: 22 fold
[5]
  IC50: 290 nM
[5]; kill 50% of the cells
  CC50: 5100 ± 1920 nM
[6]; Homo sapiens, MCF7, MCF-7/HER2 cells, 72 h
  IC50: 1000 ± 230 nM
[6]; paclitaxel 1×10^−3 μM to 10 μM, ATA 0.78 μM to 6.25 μM
  sensitivity of MCF-7/HER2 cells compared with MCF-7 cells: higher sensitivity to ATA
[7]
  percentage of cell death in Bcl-2 over expressing cells versus normal Bcl-2 level: significantly lower
[8]
  level of HER2 protein: can reduce the level of HER2 protein; also recorded: reduced the level of ERα and HER2
[9]
  level of ERα: reduced the level of ERα and HER2
[10]; Homo sapiens, MCF7, 72 h
  IC50: 1480 ± 240 nM
[10]; Homo sapiens, MCF7, 72 h, read-out: growth inhibition rate
  inhibition at 3.13 µM: 94.7%
[10]; MCF-7 (ER+), 72 h
  IC50 ratio of tamoxifen/ATA: 6.8
[10]; MCF-7, three tested drug concentrations, 72 h, MTT
  higher growth inhibition rate than tamoxifen: 57-74%
[10]; two ER-positive breast cancer cell lines, 72 h
  less ATA needed than tamoxifen to inhibit 50% of ER-positive cell growth: 6.7 fold
[11]
  CC50: 10900 ± 1450 nM
  IC50: 1390 ± 130 nM
[12]; 4 h
  GREB1 mRNA level, fold of the control: 6.4 fold
[12]; 12 h
  GREB1 mRNA level, fold of the control: 7.9 fold
[12]; 100 pM estrogen plus 6 μM compound, 24 h, normal medium
  GREB1 level of the control: about 50%
[13]
  CC50: 7640 ± 300 nM
  IC50: 1390 ± 640 nM
[14]
  average body weight versus control mice: did not significantly decrease
  tumour growth: significant inhibition on tumour growth

Reference: patent US9226912B2, “Acetyltanshinone IIA (ATA) as anticancer agent” (Nanyang Technological University, priority 2011, dated 2016)
